From article PMC11928863 (Computational and Structural Biotechnology Journal, 2025)

Biological target: T1, CD2068 (Clostridioides difficile, UniProt Q188D7)
T1 sequence (Q188D7 1-541): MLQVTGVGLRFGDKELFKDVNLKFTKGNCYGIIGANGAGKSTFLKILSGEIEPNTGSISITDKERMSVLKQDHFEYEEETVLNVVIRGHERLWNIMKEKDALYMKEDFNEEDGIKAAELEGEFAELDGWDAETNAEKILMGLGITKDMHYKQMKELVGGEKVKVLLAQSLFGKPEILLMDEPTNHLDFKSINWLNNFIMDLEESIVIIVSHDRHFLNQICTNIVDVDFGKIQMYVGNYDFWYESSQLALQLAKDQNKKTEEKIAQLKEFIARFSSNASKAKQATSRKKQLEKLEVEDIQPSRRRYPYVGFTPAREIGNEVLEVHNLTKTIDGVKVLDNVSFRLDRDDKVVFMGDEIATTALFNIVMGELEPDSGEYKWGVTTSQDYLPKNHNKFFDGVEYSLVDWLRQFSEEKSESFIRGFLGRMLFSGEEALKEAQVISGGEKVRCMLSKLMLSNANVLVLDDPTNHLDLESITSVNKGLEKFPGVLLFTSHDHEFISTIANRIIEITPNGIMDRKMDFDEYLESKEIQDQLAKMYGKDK
Assay: malachite green ATPase assay, purified CD2068 with […] ATP
Type: biochemical

Nc1ncnc2c1ncn2[C@@H]1O[C@H](COP(=O)(O)OP(=O)(O)OP(=O)(O)O)[C@@H](O)[C@H]1O [ATP]
malachite green ATPase assay, purified CD2068 with 1 mM ATP: 52.52 nmol/min/mg
